# The source made the active and inactive calls.
# Legend:
# [1] = molecular target: T1, Histone-lysine N-methyltransferase NSD2 (Homo sapiens, UniProt O96028); assay type: biochemical
# T1 sequence (O96028 whole entry): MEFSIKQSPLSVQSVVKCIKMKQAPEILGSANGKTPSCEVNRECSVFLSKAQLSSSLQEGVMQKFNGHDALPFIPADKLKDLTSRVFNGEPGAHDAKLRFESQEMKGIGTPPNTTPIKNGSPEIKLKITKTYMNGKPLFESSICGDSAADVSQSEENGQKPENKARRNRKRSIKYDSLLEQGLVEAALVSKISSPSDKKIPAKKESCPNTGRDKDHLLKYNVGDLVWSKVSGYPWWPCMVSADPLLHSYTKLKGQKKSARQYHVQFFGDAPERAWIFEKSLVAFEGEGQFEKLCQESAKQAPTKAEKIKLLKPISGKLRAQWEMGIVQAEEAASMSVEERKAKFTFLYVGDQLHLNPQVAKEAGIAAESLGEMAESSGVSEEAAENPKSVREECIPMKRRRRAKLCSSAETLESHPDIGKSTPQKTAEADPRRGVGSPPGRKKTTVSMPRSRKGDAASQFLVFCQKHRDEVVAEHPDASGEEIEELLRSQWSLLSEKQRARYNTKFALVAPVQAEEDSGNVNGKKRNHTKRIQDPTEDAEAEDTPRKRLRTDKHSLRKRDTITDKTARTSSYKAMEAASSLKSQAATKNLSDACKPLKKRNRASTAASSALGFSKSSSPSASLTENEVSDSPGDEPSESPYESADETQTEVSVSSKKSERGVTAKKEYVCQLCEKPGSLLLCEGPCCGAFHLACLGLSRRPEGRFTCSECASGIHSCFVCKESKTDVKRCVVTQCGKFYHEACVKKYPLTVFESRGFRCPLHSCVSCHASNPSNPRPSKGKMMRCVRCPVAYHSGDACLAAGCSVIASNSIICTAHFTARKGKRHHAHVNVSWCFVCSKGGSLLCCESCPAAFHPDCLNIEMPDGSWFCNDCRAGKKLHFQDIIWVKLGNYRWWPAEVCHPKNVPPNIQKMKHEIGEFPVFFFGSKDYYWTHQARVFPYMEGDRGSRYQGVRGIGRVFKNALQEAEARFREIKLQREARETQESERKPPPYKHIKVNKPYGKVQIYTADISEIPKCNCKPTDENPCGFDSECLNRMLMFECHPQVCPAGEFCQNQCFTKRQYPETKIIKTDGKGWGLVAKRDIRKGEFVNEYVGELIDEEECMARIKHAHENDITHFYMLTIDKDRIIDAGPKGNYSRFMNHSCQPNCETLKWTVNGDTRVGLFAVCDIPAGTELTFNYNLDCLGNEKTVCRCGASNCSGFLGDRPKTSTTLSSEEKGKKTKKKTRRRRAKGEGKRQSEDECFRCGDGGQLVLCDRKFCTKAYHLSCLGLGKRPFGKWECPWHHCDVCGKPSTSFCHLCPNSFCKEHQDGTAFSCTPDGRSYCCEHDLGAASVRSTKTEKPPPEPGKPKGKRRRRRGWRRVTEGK
# [2] = P. falciparum ATP4 D1247Y mutant growth inhibitors, dose response, NITD609-resistant line, SYBR Green, dry powder (AID 1159571); assay type: functional, cell-based;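 also: parasites synchronized at ring stage by sorbitol before testing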
# [3] = P. falciparum Dd2 growth inhibitors, dose response, SYBR Green, dry powder samples (AID 1159566); assay type: functional, cell-based;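 also: potency for growth inhibition with lower SYBR green DNA signal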
# [4] = HepG2 cell cytotoxicity, dose response, cytotoxicity control, cherry-picked samples (AID 1159577); assay type: functional, cell-based
# [5] = P. falciparum 3D7-ScDHODH growth inhibitors, dose response, SYBR Green, dry powder samples (AID 1159570); assay type: functional, cell-based;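 also: parasite growth measured after 72 hours of compound exposure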
# [6] = HepG2 cell cytotoxicity, dose response, cytotoxicity control, plate reader, dry powder samples (AID 1159569); assay type: functional, cell-based;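 also: inhibitor potency with signal falling toward the positive control level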
# [7] = P. falciparum Dd2 growth inhibitors, dose response, SYBR Green, cherry-picked samples (AID 1159567); assay type: functional, cell-based
# Paired box protein Pax-8 = Paired box protein Pax-8 (Homo sapiens, UniProt Q06710); assay: inhibitors of PAX8-driven TPO luciferase reporter, dose response, RMG-I cells, cherry-pick (AID 687027); assay type: functional, cell-based;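 also: luciferase reporter driven by Pax8 target thyroperoxidase promoter measured by SteadyGlo luminescence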
# [8] = cytotoxicity in OVCAR8 ovarian cancer cells, dose response, PAX8 project, cell-based, plate reader, dry powder samples (AID 743197); assay type: functional; conditions: OVCAR-8
# [9] = IOSE-T80 ovarian epithelial cell cytotoxicity, dose response, cytotoxicity control for PAX8 inhibitor project, plate reader, dry powder samples (AID 743045); assay type: functional, cell-based
# [10] = IGROV1 ovarian cancer cell cytotoxicity, dose response, PAX8 inhibitor project, plate reader, dry powder samples (AID 743043); assay type: functional, cell-based; conditions: IGROV-1
# [11] = NIH:OVCAR-3 ovarian cancer cell cytotoxicity, dose response, PAX8 inhibitor project, plate reader, dry powder samples (AID 743044); assay type: functional, cell-based
# [12] = A2780 ovarian cancer cell cytotoxicity, dose response, cytotoxicity control, plate reader, dry powder samples (AID 743046); assay type: functional, cell-based
# [13] = Dose-response inhibition of insulin secretion in a rat insulinoma line at 5 mM glucose (AID 1117331); assay type: functional, cell-based; conditions: INS-1E
# cells [14] = assay: cells
# [15] = molecular target: T2, Oxysterols receptor LXR-beta (Homo sapiens, UniProt P55055); assay type: functional, cell-based;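 also: Cell-based luminescence dose-response assay of agonist activity at LXR, run as a confirmatory counterscreen to a daf-12 agonist screen; HEK293 cells with Gal4-LXR fusion and GAL4-driven luciferase reporter; agonist potency from rising luciferase signal of a Gal4-LXR reporter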
# T2 sequence (P55055 whole entry): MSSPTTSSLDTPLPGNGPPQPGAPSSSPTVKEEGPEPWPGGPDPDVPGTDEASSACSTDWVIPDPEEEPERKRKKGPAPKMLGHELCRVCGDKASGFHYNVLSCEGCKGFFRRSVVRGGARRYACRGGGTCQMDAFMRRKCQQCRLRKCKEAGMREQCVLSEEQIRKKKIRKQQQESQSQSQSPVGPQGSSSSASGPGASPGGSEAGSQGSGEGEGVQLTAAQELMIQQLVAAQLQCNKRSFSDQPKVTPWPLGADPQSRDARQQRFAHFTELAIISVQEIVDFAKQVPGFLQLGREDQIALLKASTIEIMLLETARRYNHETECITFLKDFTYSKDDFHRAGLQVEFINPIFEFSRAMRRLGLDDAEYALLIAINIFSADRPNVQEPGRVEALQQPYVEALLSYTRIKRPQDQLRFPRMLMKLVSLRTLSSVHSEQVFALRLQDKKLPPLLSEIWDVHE
# [16] = molecular target: Heat shock protein HSP 90-alpha (Homo sapiens, UniProt P07900); assay type: functional, organism-based
# [17] = molecular target: T3, Trace amine-associated receptor 1 (Homo sapiens, UniProt Q96RJ0); assay: Counterscreen for agonists of the human trace amine associated receptor 1 (hTAAR1): Fluorescence-based cell-based high throughput dose response assay to identify hTAAR1 agonist that also desensitize TAAR1 receptor response.; assay type: functional
# T3 sequence (Q96RJ0 whole entry): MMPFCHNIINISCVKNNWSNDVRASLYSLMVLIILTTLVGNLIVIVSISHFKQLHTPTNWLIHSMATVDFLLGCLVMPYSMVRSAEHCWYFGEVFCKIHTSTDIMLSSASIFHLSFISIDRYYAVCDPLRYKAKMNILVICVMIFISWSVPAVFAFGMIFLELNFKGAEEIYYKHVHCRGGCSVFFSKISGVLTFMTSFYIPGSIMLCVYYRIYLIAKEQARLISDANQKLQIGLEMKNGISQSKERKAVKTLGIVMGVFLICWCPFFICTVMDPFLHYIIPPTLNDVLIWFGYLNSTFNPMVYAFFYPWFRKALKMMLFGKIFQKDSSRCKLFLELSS
# cells [18] = assay type: functional, cell-based
# cells [19] = assay type: functional, cell-based; remark: listed apart in the source
# [20] = molecular target: T3, Trace amine-associated receptor 1; assay: Fluorescence-based cell-based high throughput dose response assay to identify agonists of the human trace amine associated receptor 1 (TAAR1).; assay type: functional
# [21] = HepG2 cell cytotoxicity, dose response, cytotoxicity control, ATP luminescence, cherry-pick, activator set 2 (AID 1053143); assay type: functional, cell-based
# [22] = Luminescence-based cell-based high throughput dose response assay to identify activators of the DAF-12 from the parasite S. stercoralis (ssDAF-12).; assay type: functional
# [23] = molecular target: T4, DNA repair and recombination protein RAD54-like (Homo sapiens, UniProt Q92698); assay: inhibitors of human RAD54 branch migration, confirmation, biochemical, fluorescence, cherry-picked samples, dose series (AID 651657); assay type: functional
# T4 sequence (Q92698 whole entry): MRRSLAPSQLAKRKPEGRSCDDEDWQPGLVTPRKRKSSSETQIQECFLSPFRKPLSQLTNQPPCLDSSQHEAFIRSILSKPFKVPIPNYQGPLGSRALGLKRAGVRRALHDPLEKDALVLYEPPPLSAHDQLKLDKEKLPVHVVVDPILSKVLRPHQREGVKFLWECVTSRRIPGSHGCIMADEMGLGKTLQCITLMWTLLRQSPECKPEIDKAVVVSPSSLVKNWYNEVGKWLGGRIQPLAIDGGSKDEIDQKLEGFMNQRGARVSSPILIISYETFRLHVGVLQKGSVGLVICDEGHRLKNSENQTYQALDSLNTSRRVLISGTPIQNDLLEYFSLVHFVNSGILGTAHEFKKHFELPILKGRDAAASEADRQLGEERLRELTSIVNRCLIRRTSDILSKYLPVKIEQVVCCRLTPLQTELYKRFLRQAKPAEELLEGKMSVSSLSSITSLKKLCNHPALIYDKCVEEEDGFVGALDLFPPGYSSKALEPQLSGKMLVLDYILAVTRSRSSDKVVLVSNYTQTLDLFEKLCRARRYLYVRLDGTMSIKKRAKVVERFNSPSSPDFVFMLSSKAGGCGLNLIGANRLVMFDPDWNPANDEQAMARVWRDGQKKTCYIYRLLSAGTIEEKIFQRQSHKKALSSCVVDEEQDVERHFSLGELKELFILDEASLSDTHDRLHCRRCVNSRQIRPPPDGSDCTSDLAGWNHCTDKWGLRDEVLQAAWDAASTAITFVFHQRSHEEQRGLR
# [24] = MC4R antagonists, dose response, counter-screen for LGR2 antagonist project, cell-based, plate reader, cherry pick (AID 743444); assay type: functional;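 also: transfected HEK 293 cells stimulated with alpha-MSH peptide; potency of inhibitors of the alpha-MSH evoked signal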
# INS1 = assay: beta cell apoptosis inhibitors, cytokine rescue, dose response, luminescence, retest (AID 449756); assay type: functional, cell-based; conditions: Rattus norvegicus;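 also: cell death triggered by IL-1 beta plus TNF-alpha plus IFN-gamma mixture; protective hits raise ATP signal compared with cytokine alone wells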
# [25] = LGR2 antagonists, dose response, cell-based, HEK293, CRE-luciferase reporter, cherry pick, set 2 (AID 743343); assay type: functional;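 also: transfected cells were stimulated with diluted bursicon conditioned medium after compound addition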
# [26] = HepG2 cell cytotoxicity, dose response, cytotoxicity control, plate reader, cherry-pick, antagonist series (AID 743416); assay type: functional, cell-based
# [27] = A549 cell cytotoxicity, dose response, cytotoxicity control, plate reader, cherry-pick, antagonist series (AID 743412); assay type: functional, cell-based
# [28] = HEK293 cell cytotoxicity, dose response, cytotoxicity control, plate reader, cherry-picked samples (AID 743446); assay type: functional, cell-based
# Paired box protein Pax-8, sequence (Q06710 whole entry): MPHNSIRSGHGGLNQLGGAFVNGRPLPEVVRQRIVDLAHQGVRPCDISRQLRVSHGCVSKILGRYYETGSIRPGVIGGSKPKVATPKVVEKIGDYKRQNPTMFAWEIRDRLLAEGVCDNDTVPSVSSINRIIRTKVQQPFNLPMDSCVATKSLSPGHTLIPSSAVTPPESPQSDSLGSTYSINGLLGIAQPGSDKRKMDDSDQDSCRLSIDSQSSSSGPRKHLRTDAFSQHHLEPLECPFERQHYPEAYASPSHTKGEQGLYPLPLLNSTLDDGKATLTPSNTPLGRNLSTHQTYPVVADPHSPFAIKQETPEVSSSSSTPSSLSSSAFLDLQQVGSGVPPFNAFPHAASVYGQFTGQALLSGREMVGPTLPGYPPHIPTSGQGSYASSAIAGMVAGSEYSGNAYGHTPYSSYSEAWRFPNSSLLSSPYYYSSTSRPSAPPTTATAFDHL
smiles,measurement,setting,value
Oc1ccccc1CNc1cccc2cccnc12,AC50,[1],14.4 µM (active)
OC[C@H]1[C@@H](c2ccc(-c3ccc(F)cc3)cc2)[C@@H]2CN(CCC(F)(F)F)CCCCN12,AC50,[2],1.1 µM (active)
same,AC50,[3],0.518 µM (active)
same,AC50,[4],20.5 µM (active)
same,AC50,[5],1.21 µM (active)
same,AC50,[6],17 µM (active)
same,AC50,[7],0.726 µM (active)
C[C@H](CO)N1C[C@H](C)[C@@H](CN(C)Cc2ccccc2)OCCCC[C@H](C)Oc2ccc(NC(=O)Nc3ccc(C(F)(F)F)cc3)cc2C1=O,AC50,Paired box protein Pax-8,13.5 µM (active)
same,AC50,[8],25.2 µM (active)
same,AC50,[9],39.8 µM (active)
same,AC50,[10],22.4 µM (active)
same,AC50,[11],16.7 µM (active)
same,AC50,[12],36.2 µM (active)
C[C@@H]1CN([C@H](C)CO)C(=O)c2cc(NC(=O)Nc3ccc(C(F)(F)F)cc3)ccc2O[C@@H](C)CCCCO[C@H]1CN(C)C(=O)Nc1ccc(C(F)(F)F)cc1,AC50,Paired box protein Pax-8,1.89 µM (active)
same,AC50,[8],52.3 µM (active)
same,AC50,[10],63 µM (active)
same,AC50,[11],12.4 µM (active)
same,AC50,[12],34.1 µM (active)
CCO[C@H](Cc1ccc(OCCc2ccc(OS(C)(=O)=O)cc2)cc1)C(=O)O,IC50,[13],> 33.3 µM (inactive)
C/C(=N\c1ccc(C)cc1)c1sc2ccccc2c1O,EC50,cells [14],> 67.5 µM (inactive)
same,EC50,[15],> 67.5 µM (inactive)
CCOC(=O)c1sc2nc(-c3ccccc3)ccc2c1N,EC50,cells [14],> 67.5 µM (inactive)
same,EC50,[15],> 67.5 µM (inactive)
CC1=NOC(=O)/C1=C\c1ccc(-c2ccc(Br)cc2)o1,AC50,[16],4.12 µM (active)
same,AC50,[1],> 20 µM (inactive)
N#Cc1ccc(-c2ccc([C@@H]3[C@@H]4CN(C(=O)C5CCCCC5)C[C@H]3N4)cc2)cc1,AC50,[2],2.85 µM (active)
same,AC50,[3],1.34 µM (active)
same,AC50,[5],2.4 µM (active)
same,AC50,[6],23.8 µM (active)
same,AC50,[7],2.79 µM (active)
COc1ccc(C(c2nnnn2CCc2ccccc2)N2CCN(C3CCCC3)CC2)cc1 (centres undefined),IC50,[17],8.17 µM (active)
same,IC50,cells [18],> 29.9 µM (inactive)
same,EC50,cells [19],> 29.9 µM (inactive)
same,EC50,[20],1.62 µM (active)
CC1CCCN(c2nc3ccsc3c(=O)s2)C1 (centres undefined),AC50,[21],> 52 µM (inactive)
O=[N+]([O-])c1cc(Cl)ccc1-c1nc(-c2ccccc2)no1,IC50,[22],> 67.6 µM (inactive)
CC(=O)Nc1sc2c(c1-c1nc3ccccc3s1)CN(C(C)C)CC2,AC50,[23],0.715 µM (active)
same,AC50,[24],23.2 µM (active)
same,AC50,INS1,0.752 µM (active)
same,AC50,[25],27.7 µM (active)
same,AC50,[26],3.52 µM (active)
same,AC50,[21],12.5 µM (active)
same,AC50,[27],2.35 µM (active)
same,AC50,[28],25.7 µM (active)

# Reference: ChEMBL document CHEMBL1201862, “PubChem BioAssay data set” (2004)
